Results from the supplement of paper PMC11208160.

Assay: recombinant barcode read abundance after kanamycin selection (control-corrected) (log10(CPM+1)); higher = more efficient recombination; sequences stand for … in AGTGCAGAGAAAATCGGCCAGTTTTCTCTGCCTGCAGTCCGCATGCCGT…AGATTTATGCAGCGGACTGCCTTTCTCCCAAAGTGATAAACCGGACAGTATCATGGACCGGTTTTCCCGGTAATCCGTATTTGCAAGGTTGGTTTCACT; site = the 11-nt target
Method in brief: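 Recombination efficiency draws on barcodes counted at recombinant junctions in a pooled E. coli screen of targets paired with IS621 bridge RNA target-binding loops. The counts were converted to counts per million, averaged and corrected against the chloramphenicol/ampicillin LB agar control, then reported as log10(CPM+1). Selection plates held chloramphenicol/ampicillin/kanamycin with 0.1 mM IPTG, with two replicates per condition.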
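Further: IS621 recombinase and bridge RNA in Escherichia coli cells.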

| Sequence | recombinant barcode read abundance (log10) |
| --- | --- |
| CGTCGCACTTGGGTTCTAACCTGTTGCCT (site CGTCGCACTAG) | 0.0318 |
| TTGAGATCTTGGGTTCTAACCTGTTGCCT (site TTGATATCTAG) | 0.264 |
| TACTATACTTGGGTTCTAACCTGTTGCCT (site TACTATGCTAG) | 0.0468 |
| TGTTGTGCTTGGGTTCTAACCTGTTGCCT (site TGGCGTGCTAG) | 0.101 |
| TTCAAAGCTTGGGTTCTAACCTGTTGCCT (site TTCAAACCTAG) | 0.0449 |
| TCCATAACTTGGGTTCTAACCTGTTGCCT (site TCCATAACTAG) | 0.14 |
| TCTAGAGCTTGGGTTCTAACCTGTTGCCT (site TCTAGATCTAG) | 0.339 |
| AGGCTCCCTTGGGTTCTAACCTGTTGCCT (site AGGCTCCCTAG) | 0.547 |
| TGGGGTCCTTGGGTTCTAACCTGTTGCCT (site TGGTGTCCTAG) | 0.217 |
| AAGTCGTCTTGGGTTCTAACCTGTTGCCT (site ATGTCGTCTAG) | 0.0249 |
| TATTATACTTGGGTTCTAACCTGTTGCTT (site TATTATACTAG) | 0.245 |
| ACTCCGTCTTGGGTTCTAACCTGTTGCCT (site ACTGCGTCTAG) | 0.109 |
| TCGATGTCTTGGGTTCTAACCTGTTGCCT (site TCGAATTCTAG) | 0.174 |
| TGTTAGTCTTGGGTTCTAACCTGTTGCCG (site TGTTAGTCTCG) | 0.0597 |
| GGGCACTCTTGGGTTCTAACCTGTTGCGT (site GGGCACTCTAA) | 0.559 |
| TGGCGCTCTTGGGTTCTAACCTGTTGCCT (site TGACGCTCTAG) | 0.855 |
| AGGCTGTCTTGGGTTCTAACCTGTTGCCT (site AGGCTGACTAG) | 0.54 |
| GGGTCCACTTGGGTTCTAACCTGTTGCAT (site GGGTCCACTAT) | 2.17 |
| AGAGGTTCTTGGGTTCTAACCTGTTGCCT (site AAAGGTTCTAG) | 0.141 |
| TAGAATCCTTGGGTTCTAACCTGTTGCAG (site TAGAATCCTCT) | 0.718 |
| TATAGTACTTGGGTTCTAACCTGTTGCCT (site TATAGTACTAG) | 0.152 |
| TACCCGCCTTGGGTTCTAACCTGTTGCCT (site TACCCGCCTAG) | 0.838 |

| Sequence | recombinant barcode read abundance (log10) |
| --- | --- |
| AGTCTAGCTTGGGTTCTAACCTGTTGCCT (site AGTCTAGCTAG) | 0.0325 |
| ACCCTAGCTTGGGTTCTAACCTGTTGCCA (site ACCCTAGCTTG) | 1.52 |
| GGGTCCTCTTGGGTTCTAACCTGTTGCCC (site GGGTCCTCTTG) | 0.0208 |
| GCGGAAGCTTGGGTTCTAACCTGTTGCCT (site GTGGAAGCTAG) | 0.181 |
| CGGTGTCCTTGGGTTCTAACCTGTTGCTA (site CGGAGTCCTTA) | 0.0633 |
| ACTAAGTCTTGGGTTCTAACCTGTTGCCT (site ACTAAGTCTAG) | 0.53 |
| CATGCTTCTTGGGTTCTAACCTGTTGCCT (site CATGCTTCTAG) | 0.526 |
| GGTGACTCTTGGGTTCTAACCTGTTGCCT (site GGTGGATCTAG) | 0.114 |
| TACCCACCTTGGGTTCTAACCTGTTGCCT (site AACCCACCTAG) | 0.295 |
| TCGCTAGCTTGGGTTCTAACCTGTTGCGG (site TCGCTAGCTCC) | 0.657 |
| ATTTCGACTTGGGTTCTAACCTGTTGCGG (site GCAGGTGCTAA) | 0.021 |
| TTCTGTGCTTGGGTTCTAACCTGTTGCCT (site TTCTGCGCTAG) | 0.0701 |
| AATAGGACTTGGGTTCTAACCTGTTGCTA (site AATAGGACTTA) | 0.896 |
| TCCCAGTCTTGGGTTCTAACCTGTTGCTG (site TCTCAGTCTCC) | 0.0317 |
| GTAGTACCTTGGGTTCTAACCTGTTGCCT (site GTAGTATCTAG) | 0.545 |
| AGAAGTCCTTGGGTTCTAACCTGTTGCAG (site AGAAGTCCTCG) | 0.366 |
| GTAAGGACTTGGGTTCTAACCTGTTGCTT (site GTAAGAACTAA) | 0.738 |
| ACCAGATCTTGGGTTCTAACCTGTTGCCT (site ACCAGATCTAG) | 0.846 |
| CAGCTAACTTGGGTTCTAACCTGTTGCCT (site CAAATAACTAG) | 0.0162 |
| ACAGGTCCTTGGGTTCTAACCTGTTGCCG (site GTCTAATCTAT) | 0.12 |
| AATAACTCTTGGGTTCTAACCTGTTGCCT (site CATAACTCTAG) | 0.0701 |
| CGCGCTCCTTGGGTTCTAACCTGTTGCCT (site CGCGATCCTAG) | 0.0445 |

| Sequence | recombinant barcode read abundance (log10) |
| --- | --- |
| ACTTTACCTTGGGTTCTAACCTGTTGCCT (site ACTTTACCTAG) | 0.188 |
| CTACGTCCTTGGGTTCTAACCTGTTGCTG (site CTACGTCCTAA) | 0.0384 |
| AAAATGCCTTGGGTTCTAACCTGTTGCCT (site AAAATGCCTAG) | 0.359 |
| GTATCAACTTGGGTTCTAACCTGTTGCCT (site GTATCATCTAG) | 0 |
| TGACGCTCTTGGGTTCTAACCTGTTGCCT (site TGTCGCTCTAG) | 0.433 |
| TGAACGCCTTGGGTTCTAACCTGTTGCCT (site AGTACGCCTAG) | 0.0861 |
| TAGCAATCTTGGGTTCTAACCTGTTGCTA (site TAGCAATCTTA) | 0.0837 |
| GTTTGATCTTGGGTTCTAACCTGTTGCCT (site GTTTGGTCTAG) | 0.212 |
| TTGAGTCCTTGGGTTCTAACCTGTTGCTA (site TTGAATCCTTG) | 0.037 |
| GCAAGGTCTTGGGTTCTAACCTGTTGCTA (site GCAAGCTCTTA) | 0.133 |
| AGTCGGCCTTGGGTTCTAACCTGTTGCCT (site AGTCGGCCTAG) | 0.129 |
| TCGGCGACTTGGGTTCTAACCTGTTGCCT (site TCGGCGACTAG) | 0.0143 |
| ACGAGCGCTTGGGTTCTAACCTGTTGCCT (site ACGAGCGCTAG) | 1.54 |
| CTAAGAACTTGGGTTCTAACCTGTTGCTT (site CTAAGAACTAC) | 0.509 |
| TATTATACTTGGGTTCTAACCTGTTGCGT (site TATTATACTAC) | 0.335 |
| ACATTGCCTTGGGTTCTAACCTGTTGCCT (site ACATTGCCTAG) | 0.44 |
| ATCCTTACTTGGGTTCTAACCTGTTGCCT (site ATCCTTACTAG) | 1.16 |
| CAAGTACCTTGGGTTCTAACCTGTTGCCT (site GAAGTACCTAG) | 0.185 |
| GAGCCATCTTGGGTTCTAACCTGTTGCTT (site GAGCCATCTAA) | 0.524 |
| AAAGTGTCTTGGGTTCTAACCTGTTGCCT (site AACGTGTCTAG) | 0.373 |
| TAGGCTCCTTGGGTTCTAACCTGTTGCCG (site TAGCCTACTCG) | 0.00951 |
| CCAAGTCCTTGGGTTCTAACCTGTTGCCT (site CCAACACCTAG) | 0.0147 |

| Sequence | recombinant barcode read abundance (log10) |
| --- | --- |
| GGTCAACCTTGGGTTCTAACCTGTTGCCT (site GTTCAACCTAG) | 0.486 |
| CTAAGGTCTTGGGTTCTAACCTGTTGCCT (site CTAAGGTCTAG) | 0.923 |
| CCTAAGACTTGGGTTCTAACCTGTTGCCC (site CCTAAGACTGG) | 0.16 |
| CCAAGGCCTTGGGTTCTAACCTGTTGCCT (site CCAAGGCCTAG) | 0.0291 |
| CGTTGGTCTTGGGTTCTAACCTGTTGCGA (site TTGCATCCTCT) | 0.0731 |
| TACGAGGCTTGGGTTCTAACCTGTTGCCT (site TACGAGGCTAG) | 0.406 |
| GCTTGGACTTGGGTTCTAACCTGTTGCCT (site GCTTTGACTAG) | 0.0492 |
| TAGCGTACTTGGGTTCTAACCTGTTGCGG (site TAGCGTACTAC) | 0.107 |
| AATTGTCCTTGGGTTCTAACCTGTTGCGT (site AATTGTCCTAC) | 1.17 |
| CTCTGGACTTGGGTTCTAACCTGTTGCAC (site CTGTGGACTCT) | 0.058 |
| CTAACTACTTGGGTTCTAACCTGTTGCGT (site GAGGTGCCTCA) | 0.0974 |
| AGGAACCCTTGGGTTCTAACCTGTTGCTA (site AGGAACCCTGA) | 0.02 |
| AGAGGTTCTTGGGTTCTAACCTGTTGCCT (site AGAGGTTCTAG) | 1.58 |
| ACTAGAACTTGGGTTCTAACCTGTTGCAA (site ACTAGGACTCT) | 0.116 |
| TTAGGGCCTTGGGTTCTAACCTGTTGCCT (site TTAGGGCCTAG) | 0.719 |
| TATTCTACTTGGGTTCTAACCTGTTGCGC (site TATTCTACTCC) | 0.0687 |
| ACAAATCCTTGGGTTCTAACCTGTTGCCT (site ACAAATCCTAG) | 0.591 |
| CTCTACCCTTGGGTTCTAACCTGTTGCAG (site AGAGCGACTTA) | 0.0772 |
| CTGGGTTCTTGGGTTCTAACCTGTTGCCT (site CGGGGTTCTAG) | 0.312 |
| GTGCAACCTTGGGTTCTAACCTGTTGCCT (site GTGCAACCTAG) | 1.34 |
